# Test results reported in publication PMC6072853 (Frontiers in Pharmacology, 2018).
# Like-named read-outs stand apart in the source and are kept apart here.
# Assays:
# Type in all cases: cell-based, human
# [1] = system: SiHa; experiment: MTT antiproliferative assay, SiHa; details: 72 h; for inhibition at 10 µM / inhibition at 30 µM: Homo sapiens, read-out: Growth inhibition (%) ± SEM
# Source text: (§1) Gynecological cancer cell lines, including ovarian (A2780), cervical (HeLa), and breast cancer cell lines (MCF7, T47D, MDA-MB-231, and MDA-MB-361) were purchased from the European Collection of Authenticated Cell Cultures (ECACC, Salisbury, United Kingdom). Additional cervical cell lines (SiHa and C33A) and a non-cancerous immortalized, mammary gland epithelial cell line (hTERT-HME1) were purchased from LGC Standards GmbH (Wesel, Germany). Non-cancerous fibroblast cells (MRC-5) were also obtained from the ECACC. All cells were cultured in minimal essential medium supplemented with 10% fetal bovine serum, 1% non-essential amino acids, and 1% antibiotic-antimycotic mixture, in humidified air containing 5% CO2 at 37°C. Immortalized hTERT-HME1 cells were maintained in serum-free mammary epithelial cell growth medium (MEGM) supplemented with insulin, human epidermal growth factor (hEGF), hydrocortisone, bovine pituitary extract, and an antibiotic-antimycotic mixture. All the medium and supplements were purchased from Lonza Group Ltd. (Basel, Switzerland).
# (§2) The antiproliferative properties of the compounds were assessed by an MTT assay ([Mosmann, 1983]). Cells were seeded onto 96-well microplates at a density of 10,000 cells/well (MDA-MB-361 and C33A) or 5,000 cells/well (all other cell lines). After an overnight incubation, fresh medium containing the test compounds (at a concentration of 10 or 30 μM) was added. After incubation for 72 h at 37°C in humidified air, [3-(4,5-dimethylthiazol-2-yl)-2,5-diphenyltetrazolium bromide] (MTT) solution (5 mg/mL) was added. Purple formazan crystals were formed by the living cells during a 4 h contact period, which were assayed by spectrophotometry after having been dissolved in 100 μL DMSO. Untreated cells served as control, and cisplatin (CIS) (Ebewe Pharma GmbH, Unterach, Austria) was used as a reference compound. […] Two independent measurements were performed with five parallel wells. To present preliminary data concerning tumor selectivity of the potent compounds, the procedure was repeated on MRC-5 fibroblast and hTERT-HME1 immortalized mammary gland epithelial cells under the same experimental conditions.
# [2] = system: MDA-MB-231; experiment: MTT antiproliferative assay, MDA-MB-231; details: for inhibition at 10 µM / inhibition at 30 µM: Homo sapiens, read-out: Growth inhibition (%) ± SEM; for inhibition at 10 µM: MDA-MB-231, 10 μM
# Source text: as §1, §2
# [3] = system: hTERT-HME1; experiment: MTT assay, immortalized mammary gland epithelial cells hTERT-HME1; details: for Growth inhibition (%) ± SEM: 72 h
# Source text: as §1, §2
# [4] = system: MCF-7; experiment: MTT antiproliferative assay, MCF-7; details: 72 h; for inhibition at 10 µM / inhibition at 30 µM: Homo sapiens, MCF7, read-out: Growth inhibition (%) ± SEM
# Source text: as §1, §2
# [5] = system: HeLa; experiment: MTT antiproliferative assay, HeLa; details: 72 h; for IC50: read-out: calculated IC50 value; for inhibition at 10 µM / inhibition at 30 µM: read-out: Growth inhibition (%) ± SEM
# Source text: as §1, §2
# [6] = system: MDA-MB-361; experiment: MTT antiproliferative assay, MDA-MB-361; details: for Growth inhibition (%) ± SEM / inhibition at 10 µM / inhibition at 30 µM: 72 h; for inhibition at 10 µM / inhibition at 30 µM: Homo sapiens, read-out: Growth inhibition (%) ± SEM
# Source text: as §1, §2
# [7] = system: MRC-5; experiment: MTT assay, non-cancerous fibroblasts MRC-5
# Source text: as §1, §2
# [8] = system: T47D; experiment: MTT antiproliferative assay, T47D; details: 72 h; for inhibition at 10 µM / inhibition at 30 µM: Homo sapiens, read-out: Growth inhibition (%) ± SEM
# Source text: as §1, §2
# [9] = system: A2780; experiment: MTT antiproliferative assay, A2780; details: for Growth inhibition (%) ± SEM / inhibition at 10 µM / inhibition at 30 µM: 72 h; for inhibition at 10 µM / inhibition at 30 µM: Homo sapiens, read-out: Growth inhibition (%) ± SEM
# Source text: as §1, §2
# [10] = system: C33A; experiment: MTT antiproliferative assay, C33A; details: 72 h; for inhibition at 10 µM / inhibition at 30 µM: Homo sapiens, C-33-A, read-out: Growth inhibition (%) ± SEM
# Source text: as §1, §2
# [11] = read-out: calculated IC50 value
smiles,measurement,setting,value
"N.N.[Cl][Pt][Cl] [CIS, cisplatin, reference compound]",Growth inhibition (%) ± SEM,[1]; 10 μM,88.6 ± 0.5%
same,Growth inhibition (%) ± SEM,[1]; 30 μM,90.2 ± 1.8%
same,IC50,[1]; [11],7.84 µM
same,Growth inhibition (%) ± SEM,"[2]; MDA-MB-231, 30 μM, 72 h",71.5 ± 1.2%
same,IC50,"[2]; MDA-MB-231, 72 h, read-out: calculated IC50 value",19.1 µM
same,Growth inhibition (%) ± SEM,"[3]; hTERT-HME1, 10 μM",97.7 ± 0.3%
same,Growth inhibition (%) ± SEM,"[3]; hTERT-HME1, 30 μM",99.1 ± 0.3%
same,IC50,"[3]; hTERT-HME1, 72 h, read-out: calculated IC50 value",2.45 µM
same,Growth inhibition (%) ± SEM,"[4]; MCF-7, 10 μM",66.9 ± 1.8%
same,Growth inhibition (%) ± SEM,"[4]; MCF-7, 30 μM",96.8 ± 0.4%
same,Growth inhibition (%) ± SEM,[5]; 10 μM,42.6 ± 2.3%
same,Growth inhibition (%) ± SEM,[5]; 30 μM,99.9 ± 0.3%
same,IC50,[5],12.4 µM
same,Growth inhibition (%) ± SEM,"[6]; MDA-MB-361, 10 μM",67.5 ± 1.0%
same,Growth inhibition (%) ± SEM,"[6]; MDA-MB-361, 30 μM",87.8 ± 1.1%
same,IC50,"[6]; MDA-MB-361, 72 h, read-out: calculated IC50 value",3.74 µM
same,Growth inhibition (%) ± SEM,"[7]; MRC-5, 10 μM, 72 h",60.3 ± 3.3%
same,Growth inhibition (%) ± SEM,"[7]; MRC-5, 30 μM, 72 h",61.9 ± 1.0%
same,IC50,"[7]; MRC-5, 72 h, read-out: calculated IC50 value",6.19 µM
same,Growth inhibition (%) ± SEM,[8]; 10 μM,51.0 ± 2.0%
same,Growth inhibition (%) ± SEM,[8]; 30 μM,55.0 ± 1.5%
same,IC50,[8]; [11],9.78 µM
same,Growth inhibition (%) ± SEM,"[9]; A2780, 10 μM",83.6 ± 1.2%
same,Growth inhibition (%) ± SEM,"[9]; A2780, 30 μM",95.0 ± 0.3%
same,IC50,"[9]; A2780, 72 h, read-out: calculated IC50 value",1.3 µM
same,Growth inhibition (%) ± SEM,[10]; 10 μM,83.8 ± 0.8%
same,Growth inhibition (%) ± SEM,[10]; 30 μM,93.9 ± 0.6%
same,IC50,[10]; [11],1.77 µM
"C[C@]12CC[C@H]3[C@@H](CCC4=CC(=O)CC[C@@H]43)[C@@H]1CC[C@H]2OC(=O)c1cc([N+](=O)[O-])cc([N+](=O)[O-])c1 [Compound 7, 17α-19-nortestosterone-17-yl 3′,5′-dinitrobenzoate]",inhibition at 10 µM,[1]; 10 μM,< 20%
same,inhibition at 30 µM,[1]; 30 μM,< 20%
same,inhibition at 10 µM,[2]; 72 h,< 20%
same,inhibition at 30 µM,"[2]; MDA-MB-231, 30 μM, 72 h",< 20%
same,inhibition at 10 µM,"[4]; MCF-7, 10 μM",25.9 ± 3.1%
same,inhibition at 30 µM,"[4]; MCF-7, 30 μM",37.7 ± 3.4%
same,inhibition at 10 µM,"[5]; Homo sapiens, 10 μM",26.6 ± 1.8%
same,inhibition at 30 µM,"[5]; Homo sapiens, 30 μM",21.5 ± 1.9%
same,inhibition at 10 µM,"[6]; MDA-MB-361, 10 μM",< 20%
same,inhibition at 30 µM,"[6]; MDA-MB-361, 30 μM",22 ± 1.6%
same,inhibition at 10 µM,[8]; 10 μM,< 20%
same,inhibition at 30 µM,[8]; 30 μM,< 20%
same,inhibition at 10 µM,"[9]; A2780, 10 μM",49.2 ± 0.9%
same,inhibition at 30 µM,"[9]; A2780, 30 μM",58.1 ± 2%
same,inhibition at 10 µM,[10]; 10 μM,< 20%
same,inhibition at 30 µM,[10]; 30 μM,< 20%
C[C@]12CC[C@H]3[C@@H](CCC4=CC(=O)CC[C@@H]43)[C@@H]1CC[C@H]2I [Compound 5],inhibition at 10 µM,[1]; 10 μM,< 20%
same,inhibition at 30 µM,[1]; 30 μM,< 20%
same,inhibition at 10 µM,[2]; 72 h,< 20%
same,inhibition at 30 µM,"[2]; MDA-MB-231, 30 μM, 72 h",< 20%
same,inhibition at 10 µM,"[4]; MCF-7, 10 μM",< 20%
same,inhibition at 30 µM,"[4]; MCF-7, 30 μM",< 20%
same,inhibition at 10 µM,"[5]; Homo sapiens, 10 μM",95.2 ± 0.4%
same,inhibition at 30 µM,"[5]; Homo sapiens, 30 μM",95.8 ± 0.2%
same,IC50,[5]; Homo sapiens,1.49 µM
same,inhibition at 10 µM,"[6]; MDA-MB-361, 10 μM",< 20%
same,inhibition at 30 µM,"[6]; MDA-MB-361, 30 μM",< 20%
same,inhibition at 10 µM,"[7]; Homo sapiens, MRC5, MRC-5, 10 μM, 72 h, read-out: Growth inhibition (%) ± SEM",13.1 ± 1.9%
same,inhibition at 30 µM,"[7]; Homo sapiens, MRC5, MRC-5, 30 μM, 72 h, read-out: Growth inhibition (%) ± SEM",13.8 ± 2%
same,inhibition at 10 µM,[8]; 10 μM,< 20%
same,inhibition at 30 µM,[8]; 30 μM,< 20%
same,inhibition at 10 µM,"[9]; A2780, 10 μM",27.7 ± 1.3%
same,inhibition at 30 µM,"[9]; A2780, 30 μM",61.6 ± 1.8%
same,inhibition at 10 µM,[10]; 10 μM,< 20%
same,inhibition at 30 µM,[10]; 30 μM,< 20%
